The text below walks through data of patent US10556874B2, “N-(1,3,4-oxadiazol-2-yl)aryl carboxamide derivatives with herbicidal action” (Bayer CropScience Aktiengesellschaft, priority 2015, dated 2020).

Common to all, as to format: in vivo
One assay relates to Veronica persica. Put plainly: Pre-emergence herbicidal action against harmful plants. The note with it: 504 h, application rate 320 g/ha, scored visually after 3 weeks vs untreated controls, read-out: herbicidal activity in percent. From the text:
(§1) 1. Pre-Emergence Herbicidal Action Against Harmful Plants
(§2) Seeds of monocotyledonous and dicotyledonous weed plants and crop plants are laid out in wood-fiber pots in sandy loam and covered with soil. The compounds of the invention, formulated in the form of wettable powders (WP) or as emulsion concentrates (EC), are then applied to the surface of the covering soil in the form of an aqueous suspension or emulsion at a water application rate equating to 600 to 800 l/ha, with addition of 0.2% wetting agent. After the treatment, the pots are placed in a greenhouse and kept under good growth conditions for the trial plants. The damage to the test plants is scored visually after a test period of 3 weeks by comparison with untreated controls (herbicidal activity in percent (%): 100% activity=the plants have died, 0% activity=like control plants). Here, for example, the compounds Nos. 1-145, 1-385, 3-385, 4-145, 4-385, 6-385, 7-145, 7-385 and 9-385, at an application rate of 320 g/ha, each show an activity of at least 80% against Stellaria media and Veronica persica.

Assay [1] relates to Stellaria media. The assay is described as above. The settings on record: 504 h, application rate 320 g/ha, scored visually after 3 weeks vs untreated controls, read-out: herbicidal activity in percent.
Description: as §1, §2

Another assay relates to Amaranthus retroflexus. Briefly: Post-emergence herbicidal action against harmful plants. The note with it: 504 h, application rate 80 g/ha, assessed visually after about 3 weeks vs untreated controls, read-out: herbicidal action in percent. The procedure:
(§3) 2. Post-Emergence Herbicidal Action Against Harmful Plants
(§4) Seeds of monocotyledonous and dicotyledonous weed and crop plants are laid out in sandy loam soil in wood-fiber pots, covered with soil and cultivated in a greenhouse under good growth conditions. 2 to 3 weeks after sowing, the test plants are treated at the one-leaf stage. The compounds of the invention, formulated in the form of wettable powders (WP) or as emulsion concentrates (EC), are then sprayed onto the green parts of the plants in the form of an aqueous suspension or emulsion at a water application rate equating to 600 to 800 l/ha, with addition of 0.2% wetting agent. After the test plants have been left to stand in the greenhouse under optimal growth conditions for about 3 weeks, the action of the preparations is assessed visually in comparison to untreated controls (herbicidal action in percent (%): 100% activity=the plants have died, 0% activity=like control plants). Here, for example, the compounds Nos. 1-145, 1-385, 3-385, 4-145, 4-385, 6-385, 7-145, 7-385 and 9-385, at an application rate of 80 g/ha, each show an activity of at least 80% against Stellaria media and Amaranthus retroflexus.

The test system of assay [2] is Stellaria media. The description is as above. The settings on record: 504 h, application rate 80 g/ha, assessed visually after about 3 weeks vs untreated controls, read-out: herbicidal action in percent. How it is done:
as §3, §4

In assay [3] the test system is Alopecurus myosuroides (ALOMY). Briefly: Comparative experiment in pre-emergence. The note with it: dosage 80 g/ha, 100% = plants have died, 0% = like control plants.
Description: as §2
3. Comparative Experiment in Pre-Emergence
For comparative purposes, the herbicidal activity of some compounds according to the invention and the most structurally similar compounds known from the prior art were tested.

As for `CCOC(=O)OC(C)n1nc(C)oc1=NC(=O)c1ccc(C(F)(F)F)c([S+](C)[O-])c1Cl` (stereo not shown) [Compound No. 4-385, ethyl 1-[5-methyl-2-{[2-chloro-3-(methylsulfinyl)-4-(trifluoromethyl)benzoyl]imino}-1,3,4-oxadiazol-3(2H)-yl]ethyl carbonate], the pest or weed control at 320 g/ha in the assay on Veronica persica and in the assay on Stellaria media [1] was not below 80% each time. Besides, the pest or weed control at 80 g/ha in the assay with Amaranthus retroflexus and in the assay on Stellaria media [2] was not below 80% throughout.

For the compound `CCOC(=O)OC(C)N(C(=O)c1ccc(C(F)(F)F)c([S+](C)[O-])c1Cl)c1nnc(C)o1` (stereo not shown) [Compound No. 1-385, 1-{[2-chloro-3-(methylsulfinyl)-4-(trifluoromethyl)benzoyl](5-methyl-1,3,4-oxadiazol-2-yl)amino}ethyl ethyl carbonate], the pest or weed control at 320 g/ha in the assay on Veronica persica and in the assay with Stellaria media [1] was not below 80% in each case. Besides, the pest or weed control at 80 g/ha with Amaranthus retroflexus and in the assay with Stellaria media [2] was not below 80% in each case.

For `Cc1nnc(N(C(=O)c2ccc(C(F)(F)F)c([S+](C)[O-])c2Cl)C(C)OC(=O)OC2CCCCC2)o1` (stereo not shown) [Compound No. 3-385, 1-{[2-chloro-3-(methylsulfinyl)-4-(trifluoromethyl)benzoyl](5-methyl-1,3,4-oxadiazol-2-yl)amino}ethyl cyclohexyl carbonate], the pest or weed control at 320 g/ha with Veronica persica and in the assay with Stellaria media [1] was not below 80% each time. The “Herbicidal activity against ALOMY” value in assay [3] is 100%. For the same compound, the pest or weed control at 80 g/ha with Amaranthus retroflexus and with Stellaria media [2] was not below 80% throughout.

Consider `Cc1nn(C(C)OC(=O)OC2CCCCC2)c(=NC(=O)c2ccc(C(F)(F)F)c([S+](C)[O-])c2Cl)o1` (stereo not shown) [Compound No. 6-385, 1-[2-{[2-chloro-3-(methylsulfinyl)-4-(trifluoromethyl)benzoyl]imino}-5-methyl-1,3,4-oxadiazol-3(2H)-yl]ethyl cyclohexyl carbonate], for which the pest or weed control at 320 g/ha in the assay with Veronica persica and in the assay on Stellaria media [1] was not below 80% throughout. Moreover, the pest or weed control at 80 g/ha in the assay on Amaranthus retroflexus and with Stellaria media [2] was not below 80% each time.

On to `CCOC(=O)OC(C)N(C(=O)c1ccc(C(F)(F)F)c(S(C)(=O)=O)c1C)c1nnc(C)o1` (stereo not shown) [Compound No. 1-145, ethyl 1-{[2-methyl-3-(methylsulfonyl)-4-(trifluoromethyl)benzoyl](5-methyl-1,3,4-oxadiazol-2-yl)amino}ethyl carbonate], for which the pest or weed control at 320 g/ha in the assay with Veronica persica and in the assay on Stellaria media [1] was not below 80% each time. The “Herbicidal activity against ALOMY” value in assay [3] came to 100%. The pest or weed control at 80 g/ha in the assay with Amaranthus retroflexus and in the assay on Stellaria media [2] was not below 80% each time.

`CCOC(=O)OC(C)OC(=Nc1nnc(C)o1)c1ccc(C(F)(F)F)c(S(C)(=O)=O)c1C` (stereo not shown) [Compound No. 7-145, 1-[(ethoxycarbonyl)oxy]ethyl-2-methyl-N-(5-methyl-1,3,4-oxadiazol-2-yl)-3-(methylsulfonyl)-4-(trifluoromethyl)benzenecarboximidate]: the pest or weed control at 320 g/ha in the assay with Veronica persica and in the assay on Stellaria media [1] was not below 80% each time. The pest or weed control at 80 g/ha with Amaranthus retroflexus and in the assay on Stellaria media [2] was not below 80% throughout.

As to `CCOC(=O)OC(C)n1nc(C)oc1=NC(=O)c1ccc(C(F)(F)F)c(S(C)(=O)=O)c1C` (stereo not shown) [Compound No. 4-145, ethyl 1-[5-methyl-2-{[2-methyl-3-(methylsulfonyl)-4-(trifluoromethyl)benzoyl]imino}-1,3,4-oxadiazol-3(2H)-yl]ethyl carbonate], the pest or weed control at 320 g/ha in the assay on Veronica persica and in the assay with Stellaria media [1] was not below 80% in each case. Also, the pest or weed control at 80 g/ha in the assay with Amaranthus retroflexus and in the assay with Stellaria media [2] was not below 80% in each case.

`Cc1nnc(N=C(OC(C)OC(=O)OC2CCCCC2)c2ccc(C(F)(F)F)c([S+](C)[O-])c2Cl)o1` (stereo not shown) [Compound No. 9-385, 1-{[(cyclohexyloxy)carbonyl]oxy}ethyl-2-chloro-N-(5-methyl-1,3,4-oxadiazol-2-yl)-3-(methylsulfinyl)-4-(trifluoromethyl)benzenecarboximidate]: the pest or weed control at 320 g/ha in the assay with Veronica persica and in the assay with Stellaria media [1] was not below 80% throughout. Also, in assay [3], the “Herbicidal activity against ALOMY” value is recorded as 90%. For the same compound, the pest or weed control at 80 g/ha in the assay with Amaranthus retroflexus and in the assay on Stellaria media [2] was not below 80% throughout.

Turning to `CCOC(=O)OC(C)OC(=Nc1nnc(C)o1)c1ccc(C(F)(F)F)c([S+](C)[O-])c1Cl` (stereo not shown) [Compound No. 7-385, 1-[(ethoxycarbonyl)oxy]ethyl-2-chloro-N-(5-methyl-1,3,4-oxadiazol-2-yl)-3-(methylsulfinyl)-4-(trifluoromethyl)benzenecarboximidate], the pest or weed control at 320 g/ha in the assay with Veronica persica and in the assay with Stellaria media [1] was not below 80% each time. For the same compound, the “Herbicidal activity against ALOMY” value in assay [3] came out at 90%. The pest or weed control at 80 g/ha in the assay with Amaranthus retroflexus and in the assay with Stellaria media [2] was not below 80% in each case.
